Legend:
[1] = target: SARS-CoV-2 PLpro (Severe acute respiratory syndrome coronavirus 2, UniProt P0DTD1); assay: biochemical; conditions: 200 nM PLpro, 10 μM FRET substrate, 30 min preincubation at 30° C.
Description: FRET-Based PL^pro Enzymatic Assay
The SARS-CoV-2 PL^pro enzymatic assays were carried out as follows: The assay was assembled in 96-well plates with 100 μl of 200 nM PL^Pro protein in PL^Pro reaction buffer [50 mM Hepes (pH 7.5), 0.01% Triton X-100, and 5 mM DTT]. Then, 1 μl of testing compound at various concentrations was added to each well and incubated at 30° C. for 30 minutes. The enzymatic reaction was initiated by adding 1 μl of 1 mM FRET substrate (the final substrate concentration is 10 μM). The reaction was monitored in a Cytation 5 image reader with filters for excitation at 360/40 nm and emission at 460/40 nm at 30° C. for 1 hour. The initial velocity of the enzymatic reaction with and without testing compounds was calculated by linear regression for the first 15 minutes of the kinetic progress curve. The ICso values were calculated by plotting the initial velocity against various concentrations of testing compounds with a dose-response function in Prism 8 software.

[2] = Cytotoxicity assay in Vero E6 cells (neutral red uptake); type: cell-based; conditions: African green monkey, 2 days at 37° C.
Description: (§1) Cytotoxicity Assay in Vero E6 Cells
(§2) Briefly, 80,000 cells/ml of the tested cell lines were dispensed into 96-well cell culture plates at 100 μl per well. Twenty-four hours later, the growth medium was removed and washed with 150 μl of PBS buffer. Two hundred microliters of fresh serum-free medium containing serial diluted compounds was added to each well. After incubating for 2 days at 37° C., the medium was removed and replaced with 100 μl of DMEM medium containing neutral red (40 μg/ml) and incubated for 2 to 4 hours at 37° C. The amount of neutral red taken up was determined by measuring the absorbance at 540 nm using a Multiskan FC Microplate Photometer (Thermo Fisher Scientific). The CC50 values were calculated from best-fit dose-response curves with variable slope in Prism 8.

[3] = tested on: SARS-CoV-2 viral replication; conditions: cited from earlier work
[4] = tested on: Vero E6 cells; assay: Cytotoxicity assay in Vero E6 cells (neutral red uptake); type: cell-based; conditions: 2 days at 37° C.
Description: as §1, §2

Row | Compound | IC50 [1] [µM] | CC50 at 2 days [2] [µM] | EC50 [3] [µM] | CC50 [4] [µM]
1 | C=CC(=O)NCC(=O)NCc1ccccc1C(=O)N[C@H](C)c1cc(-c2cnn(C)c2)cc(-c2ccn(C)n2)c1 [Example 29, (R)-2-((2-acrylamidoacetamido)methyl)-N-(1-(3-(1-methyl-1H-pyrazol-3-yl)-5-(1-methyl-1H-pyrazol-4-yl)phenyl)ethyl)benzamide] | > 5 | > 500 | – | –
2 | CCn1ccc(-c2cc(-c3cnn(C)c3)cc([C@@H](C)NC(=O)c3ccccc3CCC(=O)NNC(=O)CCl)c2)n1 [Example 15, (R)-2-(3-(2-(2-Chloroacetyl)hydrazineyl)-3-oxopropyl)-N-(1-(3-(1-ethyl-1H-pyrazol-3-yl)-5-(1-methyl-1H-pyrazol-4-yl)phenyl)ethyl)benzamide] | < 1 | > 250 | – | –
3 | CCn1ccc(-c2cc(-c3cnn(C)c3)cc([C@@H](C)NC(=O)c3ccccc3CCC(=O)NCC(=O)CF)c2)n1 [Example 28, (R)-N-(1-(3-(1-ethyl-1H-pyrazol-3-yl)-5-(1-methyl-1H-pyrazol-4-yl)phenyl)ethyl)-2-(3-((3-fluoro-2-oxopropyl)amino)-3-oxopropyl)benzamide] | > 5 | > 250 | – | –
4 | CCn1ccc(-c2cc(-c3cnn(C)c3)cc([C@@H](C)NC(=O)c3ccccc3CCC(=O)NNS(=O)(=O)C(Cl)Cl)c2)n1 [Example 11, (R)-2-(3-(2-((dichloromethyl)sulfonyl)hydrazineyl)-3-oxopropyl)-N-(1-(3-(1-Ethyl-1H-pyrazol-3-yl)-5-(1-methyl-1H-pyrazol-4-yl)phenyl)ethyl)benzamide] | > 5 | > 250 | – | –
5 | C=CC(=O)NNC(=O)CCc1ccccc1C(=O)N[C@H](C)c1cc(-c2cnn(C)c2)cc(-c2ccn(CC)n2)c1 [Example 4, (R)-2-(3-(2-Acryloylhydrazineyl)-3-oxopropyl)-N-(1-(3-(1-ethyl-1H-pyrazol-3-yl)-5-(1-methyl-1H-pyrazol-4-yl)phenyl)ethyl)benzamide] | 1 to 5 | > 500 | – | –
6 | CCn1ccc(-c2cc(-c3cnn(C)c3)cc([C@@H](C)NC(=O)c3ccccc3CCC(=O)NNC(=O)/C=C/C(=O)N(C)C)c2)n1 [Example 12, (R,E)-2-(3-(2-(4-(Dimethylamino)-4-oxobut-2-enoyl)hydrazineyl)-3-oxopropyl)-N-(1-(3-(1-ethyl-1H-pyrazol-3-yl)-5-(1-methyl-1H-pyrazol-4-yl)phenyl)ethyl)benzamide] | < 1 | > 500 | – | –
7 | CCn1ccc(-c2cc(-c3cnn(C)c3)cc([C@@H](C)NC(=O)c3ccccc3CCC(=O)NNC(=O)C(Cl)Cl)c2)n1 [Example 3, (R)-2-(3-(2-(2,2-Dichloroacetyl)hydrazineyl)-3-oxopropyl)-N-(1-(3-(1-ethyl-1H-pyrazol-3-yl)-5-(1-methyl-1H-pyrazol-4-yl)phenyl)ethyl)benzamide] | 1 to 5 | > 500 | – | –
8 | CCn1ccc(-c2cc(-c3cnn(C)c3)cc([C@@H](C)NC(=O)c3ccccc3CCC(=O)NNC(=O)/C=C/C(=O)NC3CC3)c2)n1 [Example 13, (R,E)-2-(3-(2-(4-(Cyclopropylamino)-4-oxobut-2-enoyl)hydrazineyl)-3-oxopropyl)-N-(1-(3-(1-ethyl-1H-pyrazol-3-yl)-5-(1-methyl-1H-pyrazol-4-yl)phenyl)ethyl)benzamide] | < 1 | > 250 | – | –
9 | C=CS(=O)(=O)NCC(=O)NCc1ccccc1C(=O)N[C@H](C)c1cc(-c2cnn(C)c2)cc(-c2ccn(C)n2)c1 [Example 30, (R)-N-(1-(3-(1-methyl-1H-pyrazol-3-yl)-5-(1-methyl-1H-pyrazol-4-yl)phenyl)ethyl)-2-((2-(vinylsulfonamido)acetamido)methyl)benzamide] | < 1 | > 250 | – | –
10 | C=CS(=O)(=O)NNC(=O)CCc1ccccc1C(=O)N[C@H](C)c1cc(-c2cnn(C)c2)cc(-c2ccn(CC)n2)c1 [Example 6, (R)-N-(1-(3-(1-Ethyl-1H-pyrazol-3-yl)-5-(1-methyl-1H-pyrazol-4-yl)phenyl)ethyl)-2-(3-oxo-3-(2-(vinylsulfonyl)hydrazineyl)propyl)benzamide] | < 1 | 31 | – | –
11 | CCn1ccc(-c2cc(-c3cnn(C)c3)cc([C@@H](C)NC(=O)c3ccccc3CCC(=O)NNC(=O)/C=C/C(=O)NC3CC(F)(F)C3)c2)n1 [Example 14, (R,E)-2-(3-(2-(4-((3,3-Difluorocyclobutyl)amino)-4-oxobut-2-enoyl)hydrazineyl)-3-oxopropyl)-N-(1-(3-(1-ethyl-1H-pyrazol-3-yl)-5-(1-methyl-1H-pyrazol-4-yl)phenyl)ethyl)benzamide] | < 1 | > 250 | – | –
12 | Cc1ccc(N)cc1C(=O)N[C@H](C)c1cccc2ccccc12 [GRL0617] | – | – | ~20 | –
13 | C[C@@H](NC(=O)c1ccccc1CNC(=O)CNC(=O)CC#N)c1cc(-c2cnn(C)c2)cc(-c2ccn(C)n2)c1 [Example 31, (R)-2-((2-(2-cyanoacetamido)acetamido)methyl)-N-(1-(3-(1-methyl-1H-pyrazol-3-yl)-5-(1-methyl-1H-pyrazol-4-yl)phenyl)ethyl)benzamide] | > 5 | > 500 | – | –
14 | CCn1ccc(-c2cc(-c3cnn(C)c3)cc([C@@H](C)NC(=O)c3ccccc3CCC(=O)NNS(=O)(=O)CCl)c2)n1 [Example 10, (R)-2-(3-(2-((Chloromethyl)sulfonyl)hydrazineyl)-3-oxopropyl)-N-(1-(3-(1-ethyl-1H-pyrazol-3-yl)-5-(1-methyl-1H-pyrazol-4-yl)phenyl)ethyl)benzamide] | > 5 | > 250 | – | –
15 | CCn1ccc(-c2cc(-c3cnn(C)c3)cc([C@@H](C)NC(=O)c3ccccc3CCC(=O)NNC(=O)/C=C/C(=O)N3CC(F)C3)c2)n1 [Example 21, (R,E)-N-(1-(3-(1-ethyl-1H-pyrazol-3-yl)-5-(1-methyl-1H-pyrazol-4-yl)phenyl)ethyl)-2-(3-(2-(4-(3-fluoroazetidin-1-yl)-4-oxobut-2-enoyl)hydrazineyl)-3-oxopropyl)benzamide] | < 1 | > 500 | – | –
16 | (R)-2-(3-((2-Cyanoethyl)amino)-3-oxopropyl)-N-(1-(3-(1-ethyl-1H-pyrazol-3-yl)-5-(1-methyl-1H-pyrazol-4-yl)phenyl)ethyl)benzamide [Example 1] | > 5 | – | – | 146
17 | CCn1ccc(-c2cc(-c3cnn(C)c3)cc([C@@H](C)NC(=O)c3ccccc3CCC(=O)NNC(=O)C34CC(C3)C4)c2)n1 [Example 27, (R)-2-(3-(2-(bicyclo[1.1.1]pentane-1-carbonyl)hydrazineyl)-3-oxopropyl)-N-(1-(3-(1-ethyl-1H-pyrazol-3-yl)-5-(1-methyl-1H-pyrazol-4-yl)phenyl)ethyl)benzamide] | > 5 | > 250 | – | –
18 | C=C(Cl)C(=O)NNC(=O)CCc1ccccc1C(=O)N[C@H](C)c1cc(-c2cnn(C)c2)cc(-c2ccn(CC)n2)c1 [Example 17, (R)-2-(3-(2-(2-Chloroacryloyl)hydrazineyl)-3-oxopropyl)-N-(1-(3-(1-ethyl-1H-pyrazol-3-yl)-5-(1-methyl-1H-pyrazol-4-yl)phenyl)ethyl)] | 1 to 5 | 33 | – | –
19 | C#CCNC(=O)CCc1ccccc1C(=O)N[C@H](C)c1cc(-c2cnn(C)c2)cc(-c2ccn(CC)n2)c1 [Example 2, (R)-N-(1-(3-(1-Ethyl-1H-pyrazol-3-yl)-5-(1-methyl-1H-pyrazol-4-yl)phenyl)ethyl)-2-(3-oxo-3-(prop-2-yn-1-ylamino)propyl)benzamide] | 1 to 5 | 256 | – | –
20 | CCn1ccc(-c2cc(-c3cnn(C)c3)cc([C@@H](C)NC(=O)c3ccccc3CCC(=O)NNC(=O)/C=C/C(=O)NC34CC(C3)C4)c2)n1 [Example 20, (R,E)-2-(3-(2-(4-(Bicyclo[1.1.1]pentan-1-ylamino)-4-oxobut-2-enoyl)hydrazineyl)-3-oxopropyl)-N-(1-(3-(1-ethyl-1H-pyrazol-3-yl)-5-(1-methyl-1 H-pyrazol-4-yl)phenyl)ethyl)benzamide] | < 1 | > 250 | – | –
21 | C=C(F)C(=O)NNC(=O)CCc1ccccc1C(=O)N[C@H](C)c1cc(-c2cnn(C)c2)cc(-c2ccn(CC)n2)c1 [Example 16, (R)-N-(1-(3-(1-Ethyl-1H-pyrazol-3-yl)-5-(1-methyl-1H-pyrazol-4-yl)phenyl)ethyl)-2-(3-(2-(2-fluoroacryloyl)hydrazineyl)-3-oxopropyl)benzamide] | > 5 | > 250 | – | –

From patent US20250326742A1, “THERAPEUTIC COMPOUNDS” (RUTGERS, THE STATE UNIVERSITY OF NEW JERSEY, priority 2024, published 2025)
